This note sets out measurements from EP4782453A1 (Beyang Therapeutics Co., Ltd., priority 2023, dated 2025).

The structures appear in SMILES notation.

This experiment addresses T1, Menin-MLL (Homo sapiens, UniProt O00255).
T1 construct: His-Menin (M1-L615 end); purchased BIORTUS BP9210
T1 sequence (O00255 1-615 isoform O00255-1): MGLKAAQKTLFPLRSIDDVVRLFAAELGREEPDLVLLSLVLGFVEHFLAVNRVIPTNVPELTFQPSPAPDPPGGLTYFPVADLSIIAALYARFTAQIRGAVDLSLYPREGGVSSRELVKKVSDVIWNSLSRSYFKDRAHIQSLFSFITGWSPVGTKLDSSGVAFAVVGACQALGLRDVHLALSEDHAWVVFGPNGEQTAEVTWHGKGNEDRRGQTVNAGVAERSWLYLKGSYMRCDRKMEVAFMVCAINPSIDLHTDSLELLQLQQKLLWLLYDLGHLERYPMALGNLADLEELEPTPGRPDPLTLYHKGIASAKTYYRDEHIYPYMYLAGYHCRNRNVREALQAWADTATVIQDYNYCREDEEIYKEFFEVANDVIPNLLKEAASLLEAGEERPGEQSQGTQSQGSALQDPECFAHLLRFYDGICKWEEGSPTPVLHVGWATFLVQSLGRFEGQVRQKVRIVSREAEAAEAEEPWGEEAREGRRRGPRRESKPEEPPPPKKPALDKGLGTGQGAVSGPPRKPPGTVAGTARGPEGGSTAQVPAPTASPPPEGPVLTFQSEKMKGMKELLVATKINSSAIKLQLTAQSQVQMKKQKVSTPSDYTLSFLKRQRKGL
Briefly: Inhibitory activity against Menin-MLL binding (fluorescence polarization). To be noted: fluorescence polarization; 150 nM His-Menin, 15 nM FITC-MLL; 25°C for 60 min; read-out: Menin-MLL IC50. In short, it runs like this:
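His-Menin (M1-L615, 150 nM) preincubated with compound 15 min at 25 °C in HEPES pH 7.5, 50 mM NaCl, 1 mM DTT, 0.01% BSA, then 15 nM FITC-MLL4-43 peptide added for 60 min at 25 °C. Fluorescence polarization read; IC50 from 4-parameter logistic fit, duplicates.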
Consider `CCN(C(=O)c1cc(F)ccc1-c1cc(C2CN([C@H](CCCN3CCN(C)CC3)C(C)C)C2)cn2c(C)nc(F)c12)C(C)C` [Example 312-2], for which the half-maximal inhibitory concentration (IC50) was 2.8 nM.

Regarding `Cc1nc(F)c2c(-c3ccc(F)cc3C(=O)N3CCOC[C@H]3C)cc(C3CN([C@H](CCCN4CCC(F)CC4)C(C)C)C3)cn12` [Example 314], the IC50 stood at 2.5 nM.

As to `Cc1nc(F)c2c(-c3ccc(F)cc3C(=O)N3CCOC[C@H]3C)cc(C3CN([C@H](CO[C@H]4CCCN(C)C4)C(C)C)C3)cn12` [Example 321-2, (3R)-4-[5-fluoro-2-(1-fluoro-3-methyl-6-{1-[(2S)-3-methyl-1-{[(3S)-1-methylpiperidin-3-yl]oxy}butan-2-yl]azacyclobutan-3-yl}imidazo[1,5-a]pyridin-8yl)benzoyl]-3-methylmorpholine], the IC50 was found to be 3.8 nM.

In the case of `Cc1ncc2c(-c3ccc(F)cc3C(=O)N3CCOC[C@H]3C)cc(C3CN([C@H](CCCN4CCN(C)CC4)C(C)C)C3)cn12` [Example 323-2, (3R)-4-[5-fluoro-2-(3-methyl-6-{1-[(3R)-2-methyl-6-(4-methylpiperazin-1-yl)hexan-3-yl]azacyclobutan-3-yl}imidazo[1,5-a]pyridin-8-yl)benzoyl]-3-methylmorpholine], the IC50 was found to be 2.7 nM.

Consider `CCN1CCN(CCC[C@H](C(C)C)N2CC(c3cc(-c4ccc(F)cc4C(=O)N4CCOC[C@H]4C)c4cnc(C)n4c3)C2)CC1` [Example 324-2], for which the IC50 was 2.5 nM.

In the case of `Cc1nc(F)c2c(-c3ccc(F)cc3C(=O)N3CCOC[C@H]3C)cc(C3CN([C@H](CCCN4CCN(C5CC5)CC4)C(C)C)C3)cn12` [Example 350], the IC50 turned out to be 3.3 nM.

As for `Cc1nc(F)c2c(-c3ccc(F)cc3C(=O)N3CCOC[C@H]3C)cc(C3CN([C@H](CCCN4C[C@H]5C[C@@H]4CO5)C(C)C)C3)cn12` [Example 353, (1R,4R)-5-[(4R)-4-[3-(1-fluoro-8-{4-fluoro-2-[(3R)-3-methylmorpholin-4-carbonyl]phenyl}-3-methylimidazo[1,5-a]pyridin-6-yl)azacyclobutan-1-yl]-5-methylhexyl]-2-oxa-5-azabicyclo[2.2.1]heptane], the IC50 worked out at 2.6 nM.

Consider `Cc1nc(F)c2c(-c3ccc(F)cc3C(=O)N3CCOC[C@H]3C)cc(C3CN([C@H](CN4CCN(C)CC4)C(C)C)C3)cn12` [Example 368-2, (3R)-4-[5-fluoro-2-(1-fluoro-3-methyl-6-{1-[(2S)-3-methyl-1-(4-methylpiperazin-1-yl)butan-2-yl]azacyclobutan-3-yl}imidazo[1,5-a]pyridin-8-yl)benzoyl]-3-methylmorpholine], for which the IC50 worked out at 4.3 nM.

For `Cc1nc(F)c2c(-c3ccc(F)cc3C(=O)N3CCOC[C@H]3C)cc(C3CN(C(CC[C@@H]4COCCN4)C(C)C)C3)cn12` (stereo partly drawn) [Example 371, (3R)-4-{5-fluoro-2-[1-fluoro-3-methyl-6-(1-{4-methyl-1-[(3R)-morpholin-3-yl]pentan-3-yl}azacyclobutan-3-yl)imidazo[1,5-a]pyridin-8-yl]benzoyl}-3-methylmorpholine], the IC50 turned out to be 4.8 nM.

For the compound `CCN(C(=O)c1cc(F)ccc1-c1cc(C2CN([C@H](CCCN3C[C@H]4C[C@@H]3CO4)C(C)C)C2)cn2c(C)ncc12)C(C)C` [Example 379, N-ethyl-5-fluoro-2-(3-methyl-6-{1-[(3R)-2-methyl-6-[(1R,4R)-2-oxa-5-azabicyclo[2.2.1]heptan-5-yl]hexan-3-yl]azacyclobutan-3-yl}imidazo[1,5-a]pyridin-8-yl)-N-(isopropyl)benzamide], the half-inhibitory concentration (IC50) came out at 1.8 nM.

For `CCN(C(=O)c1cc(F)ccc1-c1cc(C2CN([C@H](CCCN3CCN(CCO)CC3)C(C)C)C2)cn2c(C)ncc12)C(C)C` [Example 398, N-ethyl-5-fluoro-2-(6-{1-[(3R)-6-[4-(2-hydroxyethyl)piperazin-1-yl]-2-methylhexan-3-yl]azacyclobutan-3-yl}-3-methylimidazo[1,5-a]pyridin-8-yl)-N-(isopropyl)benzamide], the IC50 was determined as 1.9 nM.

Consider `CCN(C(=O)c1cc(F)ccc1-c1cc(C2CN([C@H](CCCN3C4COCC3C4)C(C)C)C2)cn2c(C)ncc12)C(C)C` [Example 423], for which the IC50 was found to be 1.7 nM.

On to `CCN(C(=O)c1cc(F)ccc1-c1cc(C2CN([C@H](CN3CCN(CCO)CC3)C(C)C)C2)cn2c(C)ncc12)C(C)C` [Example 431, N-ethyl-5-fluoro-2-(6-{1-[(2S)-1-[4-(2-hydroxylethyl)piperazin-1-yl]-3-methylbutan-2-yl]azacyclobutan-3-yl}-3methylimidazo[1,5-a]pyridin-8-yl)-N-(isopropyl)benzamide], for which the 50% inhibitory concentration (IC50) was determined as 3.9 nM.
